Values after ≈ are worked out from the molar mass of the structure shown. Where two headings read alike, the source gives them in different places.
How the values were obtained:
Mtb LeuRS = Mtb LeuRS (Mycobacterium tuberculosis, UniProt P9WFV1); experiment: biochemical; parameters: species or system M. tuberculosis
E. coli K12 tolC::Tn10 = experiment: General antimicrobial activity assay (CLSI broth microdilution); type: cell-based, Escherichia coli
Procedure: (§1) Whole-cell antimicrobial activity was determined by broth microdilution using the Clinical and Laboratory Standards Institute (CLSI) recommended procedure, Document M7-A7, “Methods for Dilution Susceptibility Tests for Bacteria that Grow Aerobically”.

E. coli K12 = experiment: as above; type: cell-based, Escherichia coli
Procedure: as §1

[1] = tested on: M. tuberculosis clinical isolates; experiment: MIC against clinical strains (BACTEC MGIT 960 System); type: cell-based; details: Mycobacterium tuberculosis
A. baumannii ATCC 17978 = experiment: General antimicrobial activity assay (CLSI broth microdilution); type: cell-based, Acinetobacter baumannii
Procedure: as §1

[2] = tested on: M. tuberculosis standard strain Mtb H37Rv; experiment: MIC determination against mycobacteria (resazurin, Middlebrook 7H9); type: cell-based, Mycobacterium tuberculosis
P. aeruginosa PA01 = experiment: General antimicrobial activity assay (CLSI broth microdilution); type: cell-based, Pseudomonas aeruginosa
Procedure: as §1

Human cyto LeuRS = Human cyto LeuRS (Homo sapiens, UniProt Q9P2J5); experiment: LeuRS aminoacylation assay, IC50 determination; type: biochemical
Sequence of Human cyto LeuRS (Q9P2J5 whole entry): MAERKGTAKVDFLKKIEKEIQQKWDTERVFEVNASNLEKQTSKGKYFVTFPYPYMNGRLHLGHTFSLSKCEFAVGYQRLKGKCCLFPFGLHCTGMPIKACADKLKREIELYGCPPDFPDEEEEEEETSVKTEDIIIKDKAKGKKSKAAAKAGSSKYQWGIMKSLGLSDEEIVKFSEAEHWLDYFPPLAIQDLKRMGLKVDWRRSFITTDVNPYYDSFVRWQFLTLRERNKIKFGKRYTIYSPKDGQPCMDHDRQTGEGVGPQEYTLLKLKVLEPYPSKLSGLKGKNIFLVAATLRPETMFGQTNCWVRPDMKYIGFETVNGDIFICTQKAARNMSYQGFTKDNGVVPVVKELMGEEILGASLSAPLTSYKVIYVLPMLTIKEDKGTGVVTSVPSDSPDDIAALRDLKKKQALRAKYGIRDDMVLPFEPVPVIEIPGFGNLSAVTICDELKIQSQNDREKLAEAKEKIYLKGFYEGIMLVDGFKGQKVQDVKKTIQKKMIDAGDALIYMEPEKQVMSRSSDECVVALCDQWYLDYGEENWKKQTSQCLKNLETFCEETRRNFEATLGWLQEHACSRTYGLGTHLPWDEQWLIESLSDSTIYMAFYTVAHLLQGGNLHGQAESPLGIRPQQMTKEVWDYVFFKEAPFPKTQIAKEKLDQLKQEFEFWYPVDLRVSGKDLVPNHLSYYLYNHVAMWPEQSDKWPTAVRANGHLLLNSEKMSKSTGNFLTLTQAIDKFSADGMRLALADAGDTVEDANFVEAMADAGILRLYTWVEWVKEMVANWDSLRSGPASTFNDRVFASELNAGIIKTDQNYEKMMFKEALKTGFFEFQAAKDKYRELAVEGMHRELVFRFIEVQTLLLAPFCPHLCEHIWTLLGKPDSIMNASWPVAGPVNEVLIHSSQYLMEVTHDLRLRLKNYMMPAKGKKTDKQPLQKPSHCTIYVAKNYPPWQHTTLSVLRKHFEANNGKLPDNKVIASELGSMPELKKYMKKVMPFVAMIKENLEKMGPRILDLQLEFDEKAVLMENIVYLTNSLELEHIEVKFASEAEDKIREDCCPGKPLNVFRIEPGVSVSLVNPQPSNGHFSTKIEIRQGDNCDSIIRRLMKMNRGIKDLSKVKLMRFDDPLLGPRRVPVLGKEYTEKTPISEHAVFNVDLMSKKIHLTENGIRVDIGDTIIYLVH

[3] = Mycobacterium tuberculosis, H37RV; read-out: Mtb H37Rv MIC (B)

Sequence of Mtb LeuRS (P9WFV1 whole entry): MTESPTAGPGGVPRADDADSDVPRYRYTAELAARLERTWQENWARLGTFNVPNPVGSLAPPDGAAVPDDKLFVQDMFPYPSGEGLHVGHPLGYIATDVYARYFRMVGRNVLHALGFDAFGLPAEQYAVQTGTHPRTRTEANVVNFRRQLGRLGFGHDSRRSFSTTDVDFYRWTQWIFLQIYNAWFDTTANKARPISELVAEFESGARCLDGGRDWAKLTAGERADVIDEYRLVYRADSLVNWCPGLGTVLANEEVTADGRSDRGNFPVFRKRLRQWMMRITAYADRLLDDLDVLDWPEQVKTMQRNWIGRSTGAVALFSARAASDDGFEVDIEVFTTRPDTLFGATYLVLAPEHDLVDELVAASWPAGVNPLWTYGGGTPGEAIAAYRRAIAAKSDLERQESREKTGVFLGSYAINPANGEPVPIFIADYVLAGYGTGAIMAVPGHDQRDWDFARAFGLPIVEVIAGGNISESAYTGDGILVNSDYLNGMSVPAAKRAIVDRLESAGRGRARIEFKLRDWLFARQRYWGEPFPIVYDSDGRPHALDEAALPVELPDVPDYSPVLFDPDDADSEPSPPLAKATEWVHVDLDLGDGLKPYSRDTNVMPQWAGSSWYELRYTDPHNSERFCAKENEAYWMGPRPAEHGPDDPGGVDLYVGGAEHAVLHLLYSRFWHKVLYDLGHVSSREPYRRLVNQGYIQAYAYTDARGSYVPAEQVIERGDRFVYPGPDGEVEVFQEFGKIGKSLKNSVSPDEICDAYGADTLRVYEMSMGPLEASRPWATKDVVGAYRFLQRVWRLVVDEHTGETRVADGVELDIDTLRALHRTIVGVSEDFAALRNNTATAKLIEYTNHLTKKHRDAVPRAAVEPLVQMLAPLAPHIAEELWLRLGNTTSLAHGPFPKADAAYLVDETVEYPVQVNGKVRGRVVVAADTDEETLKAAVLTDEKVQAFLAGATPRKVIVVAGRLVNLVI

Cl.NC[C@H]1OB2OCCOc3ccc(Cl)c1c32 [Example 4, (S)-(3-chloro-7,8-dihydro-2H-1,6,9-trioxa-9a-borabenzo[cd]azulen-2-yl)methanamine hydrochloride]
IC50 (Mtb LeuRS): 0.148 µM | HepG2 cell 48 h Tox50 (A) (HepG2 cells): >1000 µM | MIC: E. coli K12 tolC::Tn10 (E. coli K12 tolC::Tn10): 64 µg/mL | MIC: E. coli K12 (E. coli K12): 64 µg/mL | MIC ([1]; read-out: measured MIC (breakdown), for 1 strain (EXAMPLE 2 and EXAMPLE 4), highest MIC): 0.16 µM | MIC ([1]; read-out: measured MIC (breakdown), for 1 strain of 40 clinical isolates (lowest MIC, EXAMPLE 4)): ≤ 0.2 µM | MIC ([1]; read-out: measured MIC (breakdown), for 40 strains (EXAMPLE 2 and EXAMPLE 4)): 0.08 µM | MIC ([1]; strain 3, sensitive clinical isolate): 0.04 µM | MIC ([1]; strain 52, sensitive clinical isolate): 0.08 µM | MIC ([1]; strain 137, sensitive clinical isolate): 0.08 µM | MIC ([1]; strain 161, sensitive clinical isolate): 0.31 µM | MIC ([1]; strain 169, sensitive clinical isolate): 0.08 µM | MIC ([1]; strain 192, sensitive clinical isolate): 0.08 µM | MIC ([1]; strain 199, sensitive clinical isolate): 0.08 µM | MIC ([1]; strain 206, sensitive clinical isolate): 0.08 µM | MIC ([1]; strain 207, sensitive clinical isolate): 0.08 µM | MIC ([1]; strain 208, sensitive clinical isolate): 0.08 µM | MIC ([1]; strain 223, sensitive clinical isolate): 0.08 µM | MIC ([1]; strain 231, sensitive clinical isolate): 0.08 µM | MIC ([1]; strain 237, sensitive clinical isolate): 0.08 µM | MIC ([1]; strain 247, sensitive clinical isolate): 0.08 µM | MIC ([1]; strain 248, sensitive clinical isolate): 0.08 µM | MIC ([1]; strain 249, sensitive clinical isolate): 0.08 µM | MIC ([1]; strain 250, sensitive clinical isolate): 0.08 µM | MIC ([1]; strain 253, sensitive clinical isolate): 0.08 µM | MIC ([1]; strain 255, sensitive clinical isolate): 0.08 µM | MIC ([1]; strain 256, sensitive clinical isolate): 0.08 µM | MIC ([1]; strain 257, sensitive clinical isolate): 0.08 µM | MIC ([1]; strain 261, sensitive clinical isolate): 0.08 µM | MIC ([1]; strain 265, sensitive clinical isolate): 0.08 µM | MIC ([1]; strain 267, sensitive clinical isolate): 0.08 µM | MIC ([1]; strain 269, sensitive clinical isolate): 0.08 µM | MIC ([1]; strain 274, sensitive clinical isolate): 0.16 µM | MIC ([1]; strain 281, sensitive clinical isolate): 0.08 µM | MIC ([1]; strain 292, sensitive clinical isolate): 0.08 µM | MIC ([1]; strain 296, sensitive clinical isolate): 0.08 µM | MIC ([1]; strain 311, sensitive clinical isolate): 0.08 µM | MIC ([1]; strain 314, sensitive clinical isolate): 0.08 µM | MIC ([1]; strain 316, sensitive clinical isolate): 0.08 µM | MIC ([1]; strain 317, sensitive clinical isolate): 0.08 µM | MIC ([1]; strain 322, sensitive clinical isolate): 0.08 µM | MIC ([1]; strain 323, sensitive clinical isolate): 0.08 µM | MIC ([1]; strain 324, sensitive clinical isolate): 0.08 µM | MIC ([1]; strain 325, sensitive clinical isolate): 0.16 µM | MIC ([1]; strain 326, sensitive clinical isolate): 0.08 µM | MIC ([1]; strain 327, sensitive clinical isolate): 0.08 µM | MIC ([1]; strain 328, sensitive clinical isolate): 0.08 µM | MIC ([1]; strain 329, sensitive clinical isolate): 0.08 µM | MIC ([1]; strain 332, sensitive clinical isolate): 0.08 µM | MIC ([1]; strain 333, sensitive clinical isolate): 0.08 µM | MIC ([1]; strain 337, sensitive clinical isolate): 0.08 µM | MIC ([1]; strain 356, sensitive clinical isolate): 0.04 µM | MIC ([1]; strain 357, sensitive clinical isolate): 0.04 µM | MIC ([1]; strain 358, sensitive clinical isolate): 0.08 µM | MIC ([1]; strain 361, sensitive clinical isolate): 0.08 µM | MIC ([1]; strain 362, sensitive clinical isolate): 0.04 µM | MIC ([1]; strain 370, sensitive clinical isolate): 0.04 µM | MIC ([1]; strain 371, sensitive clinical isolate): 0.08 µM | MIC ([1]; strain 374, sensitive clinical isolate): 0.08 µM | MIC ([1]; strain 385, sensitive clinical isolate): 0.08 µM | MIC ([1]; strain 391, sensitive clinical isolate): 0.08 µM | MIC ([1]; strain 424, sensitive clinical isolate): 0.08 µM | MIC ([1]; strain 440, sensitive clinical isolate): 0.08 µM | MIC ([1]; strain 442, sensitive clinical isolate): 0.08 µM | MIC ([1]; strain 457, sensitive clinical isolate): 0.04 µM | MIC ([1]; strain 460, sensitive clinical isolate): 0.08 µM | MIC ([1]; strain 481, sensitive clinical isolate): 0.08 µM | MIC ([1]; strain 705, sensitive clinical isolate): 0.16 µM | MIC ([1]; strain 716, sensitive clinical isolate): 0.08 µM | MIC ([1]; strain 729, sensitive clinical isolate): 0.08 µM | MIC ([1]; strain 730, sensitive clinical isolate): 0.08 µM | MIC ([1]; strain 731, sensitive clinical isolate): 0.08 µM | MIC ([1]; strain 733, sensitive clinical isolate): 0.08 µM | MIC ([1]; strain 734, sensitive clinical isolate): 0.08 µM | MIC ([1]; strain 736, sensitive clinical isolate): 0.08 µM | MIC ([1]; strain 737, sensitive clinical isolate): 0.08 µM | MIC: A. baumannii ATCC 17978 (A. baumannii ATCC 17978): 64 µg/mL | MIC ([2]; Mycobacterium tuberculosis, H37RV, read-out: Mtb H37Rv MIC (B)): < 0.1 µM | MIC ([2]; hydrochloride; read-out: Mtb H37Rv MIC (B)): 0.08 µM | MIC: P. aeruginosa PA01 (P. aeruginosa PA01): 64 µg/mL

CCOc1ccc(Br)c2c1B(O)O[C@@H]2CN [Example C4-Br, reference compound]
Selectivity Index (A/B) (HepG2 cells): 320 | HepG2 cell 48 h Tox50 (A) (HepG2 cells): 32 µM | MIC: E. coli K12 tolC::Tn10 (E. coli K12 tolC::Tn10): 64 µg/mL (≈ 224 µM) | MIC: E. coli K12 (E. coli K12): 64 µg/mL (≈ 224 µM) | MIC: A. baumannii ATCC 17978 (A. baumannii ATCC 17978): 64 µg/mL (≈ 224 µM) | IC50 (Human cyto LeuRS): 67 µM | MIC [2, 3]: 0.1 µM (≈ 0.0286 µg/mL) | MIC: P. aeruginosa PA01 (P. aeruginosa PA01): 64 µg/mL (≈ 224 µM)

CCOc1ccc(Cl)c2c1B(O)O[C@@H]2CN [Example C6-Cl, reference compound]
Selectivity Index (A/B) (HepG2 cells): 363 | HepG2 cell 48 h Tox50 (A) (HepG2 cells): 36.3 µM | MIC: E. coli K12 tolC::Tn10 (E. coli K12 tolC::Tn10): 64 µg/mL (≈ 265 µM) | MIC: E. coli K12 (E. coli K12): 64 µg/mL (≈ 265 µM) | MIC: A. baumannii ATCC 17978 (A. baumannii ATCC 17978): 64 µg/mL (≈ 265 µM) | IC50 (Human cyto LeuRS): 38.8 µM | MIC [2, 3]: 0.1 µM (≈ 0.0241 µg/mL) | MIC: P. aeruginosa PA01 (P. aeruginosa PA01): 64 µg/mL (≈ 265 µM)

From US10526352B2, “Tricyclic benzoxaborole compounds and uses thereof” (GlaxoSmithKline Intellectual Property (No.2) Limited, priority 2013, dated 2020)
